Square brackets hold non-standard residues; d marks the D form. Peptide text beside a SMILES is read from it. sY = N[C@@H](Cc1ccc(OS(=O)(=O)O)cc1)C(=O)O; pGlu = O=C1CC[C@@H](C(=O)O)N1
Tests used:
Asterias rubens = assay: In vivo retraction of the everted cardiac stomach after injection; settings: for cardiac stomach retraction in vivo: injection of 10 nmol (10 μl of 1 mM) into perivisceral coelom, eversion induced with 2% MgCl2 in seawater, 6 min; for reduction in the area of cardiac stomach everted: within 360 s after injection of 10 mol (10 µl 1 mM), normalized to area at T0, n = 6 (ArSK/CCK1), 6 (ArSK/CCK2), 8 (ArSK/CCK2(ns))
Experimental: Therefore, experiments were performed to investigate if ArSK/CCK1 and ArSK/CCK2 also trigger cardiac stomach retraction in A. rubens. Twenty specimens of A. rubens, which had been withheld from a food supply for 1 week, were placed in a glass tank containing 2% magnesium chloride (MgCl2; Sigma-Aldrich, Gillingham, UK) dissolved in seawater, which acts as a muscle relaxant in marine invertebrates ([Mayer, 1909]). This treatment conveniently and reproducibly causes eversion of the cardiac stomach in A. rubens, typically within a period of ~30 min ([Semmens et al., 2013]). Hamilton 75 N 10 μl syringes (Sigma-Aldrich, Gillingham, UK) were used to inject test compounds into the perivisceral coelom of animals, inserting the needle through the aboral body wall of the arms proximal to the junctions with the central disk region. Care was taken to inject neuropeptides (ArSK/CCK1, ArSK/CCK2 and ArSK/CCK2(ns)) or distilled water (control) into the perivisceral coelom and not into the cardiac stomach. All animals were first injected with 10 μl of distilled water (control) and video-recorded for 6 min. The same animals were then injected with 10 μl of 1 mM peptide (10 nmol) and video-recorded for 6 min. Static images from video recordings were captured at 30 s intervals from the time of injection. Then the two-dimensional area of everted cardiac stomach was measured from the images using the ImageJ software (version 1.0; http://rsb.info.nih.gov/ij) and normalized as a percentage of the area of cardiac stomach everted at the time of injection (T0).

[1] = test system: cardiac stomach preparations; assay: In vitro contraction of cardiac stomach preparations (organ bath); design: species or system Asterias rubens; settings: for contraction of cardiac stomach preparations: in vitro, 1 nM to 1 μM, n = 5–9; for effect compared with NGFFYamide (100 nM): peptide 1 µM, Student's t-test p > 0.05, data not shown
Experimental: (§1) Effects of peptides on preparations were tested and recorded using an isotonic transducer (MLT0015, ADInstruments Pty Ltd) connected to a bridge amplifier (FE221 Bridge Amp, ADInstruments Pty Ltd) linked to PowerLab data acquisition hardware (2/36, ADInstruments Pty Ltd). Data were collected and analysed using LabChart (RRID:SCR_017551; v8.0.7) software installed on a laptop computer (Lenovo E540, Windows 7 Professional). Stock solutions of synthetic peptides were prepared in distilled water and added to the organ bath to achieve final concentrations ranging from 0.1 nM to 1 μM. To assess the viability of preparations and to enable normalization of responses to ArSK/CCK1 or ArSK/CCK2, the starfish neuropeptide NGFFYamide (100 nM) was tested on cardiac stomach preparations and acetylcholine (10 µM) was tested on tube foot and apical muscle preparations. To assess the importance of tyrosine sulphation for peptide bioactivity, a non-sulphated analog of ArSK/CCK2 (ArSK/CCK2(ns)) was also tested on cardiac stomach (n = 5), tube foot, and apical muscle preparations (data not shown).

[2] = test system: CHO-K1 cells transfected with an empty vector; assay: Control: CHO-K1 aequorin (G5A) cells transfected with empty pcDNA 3.1(+) vector; format: cell-based, Chinese hamster
Source text: (§2) To enable testing of ArSK/CCK1 and ArSK/CCK2 as candidate ligands for ArSK/CCKR, a full-length cDNA encoding ArSK/CCKR was synthesized by GenScript (Piscataway, NJ) and cloned into pcDNA 3.1+ vector (Invitrogen, Thermo Fisher Scientific, Waltham, MA). A partial Kozak translation initiation sequence (CACC) was introduced upstream to the start codon (ATG). CHO-K1 cells stably expressing the mitochondrial targeted calcium-sensitive bioluminescent reporter GFP-aequorin fusion protein (G5A) ([Baubet et al., 2000]) were used as a heterologous expression system for ArSK/CCKR. These cells have been used previously for neuropeptide receptor deorphanisation ([Bauknecht and Jékely, 2015]) and were generously supplied to us by Dr Gáspár Jékely (University of Exeter). The cell line was generated using the CHO-K1 cell line from Sigma-Aldrich (85051005; RRID: CVCL_0214), which is certified by the European Collection of Authenticated Cell Cultures (ECACC), and expression of the GFP-aequorin fusion protein (G5A) in the cell line was determined by functionality in displaying calcium-activated luminescence. […] Cells were cultured, co-transfected with the pcDNA 3.1+ vector containing the ArSK/CCKR cDNA sequence and plasmids encoding the promiscuous human G-protein Gα16. Then bioluminescence-based receptor assays were performed, as described previously for A. rubens luqin-type receptors ([Yañez-Guerra et al., 2018]).
(§3) The peptides were diluted in distilled water and tested as candidate ligands for ArSK/CCKR at concentrations ranging from 3 × 10^−17 to 10^−4 M. Concentration-response data were determined as a percentage of the highest response for each peptide (100% activation). EC50 values were calculated from concentration-response curves based on four to six independent transfections and averaging two to three replicates in each transfection using Prism 6.0 (RRID:SCR_002798; GraphPad software, La Jolla, CA). Cells transfected with an empty vector were used for control experiments.

tube foot preparations = assay: In vitro contraction of tube foot preparations (organ bath); design: species or system Asterias rubens; settings: for contraction of tube foot preparations: in vitro, 1 nM to 1 µM, n = 8–10; for mean effect on tube foot preparations, % of the effect of 10 µM acetylcholine: peptide 1 µM
Experimental: as §1

ArSK/CCKR = biological target: T1, ArSK/CCKR (Asterias rubens, UniProt A0A8F2ZGB9); assay: Aequorin bioluminescence receptor assay in CHO-K1 cells (G5A) co-transfected with ArSK/CCKR and human Gα16; format: cell-based; settings: for EC50: luminescence as % of maximal response, four to six independent transfections, two to three replicates each, 3 × 10^−17 to 10^−4 M
T1 sequence (A0A8F2ZGB9 1-434): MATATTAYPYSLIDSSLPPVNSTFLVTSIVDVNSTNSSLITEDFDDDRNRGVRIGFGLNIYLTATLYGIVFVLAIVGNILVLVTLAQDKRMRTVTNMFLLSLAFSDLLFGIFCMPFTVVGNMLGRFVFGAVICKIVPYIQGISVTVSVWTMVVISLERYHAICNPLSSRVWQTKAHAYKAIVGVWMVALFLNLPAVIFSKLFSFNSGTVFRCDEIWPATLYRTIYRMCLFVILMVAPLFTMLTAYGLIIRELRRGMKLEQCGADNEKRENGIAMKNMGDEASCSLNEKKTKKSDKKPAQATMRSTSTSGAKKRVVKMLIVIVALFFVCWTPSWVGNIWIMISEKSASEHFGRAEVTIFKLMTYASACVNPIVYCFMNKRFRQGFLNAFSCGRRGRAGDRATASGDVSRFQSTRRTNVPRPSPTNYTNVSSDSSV
Source text: as §2
as §3, with “The peptides were diluted in distilled water and tested as candidate ligands for ArSK/CCKR at concentrations ranging from 3 × 10^−17 to 10^−4 M.” left out

Compound	cardiac stomach retraction in vivo (Asterias rubens)	reduction in the area of cardiac stomach everted (Asterias rubens)	contraction of cardiac stomach preparations [1]	luminescence response [2]	contraction of tube foot preparations (tube foot preparations)	potency as ligand for ArSK/CCKR compared with ArSK/CCK1 and ArSK/CCK2 (ArSK/CCKR; from EC50 values)	EC50 (ArSK/CCKR)	effect compared with NGFFYamide (100 nM) [1]	effectiveness on tube foot preparations compared with ArSK/CCK2 (tube foot preparations; 25 and 100 nM, Bonferroni's test p < 0.01 and 0.05)	mean effect on tube foot preparations, % of the effect of 10 µM acetylcholine (tube foot preparations)
CC(C)C[C@H](NC(=O)CNC(=O)[C@H](Cc1ccccc1)NC(=O)CNC(=O)[C@H](Cc1ccc(O)cc1)NC(=O)[C@H](CCC(N)=O)NC(=O)[C@H](CC(=O)O)NC(=O)[C@H](CC(=O)O)NC(=O)CNC(=O)CN)C(=O)N[C@@H](Cc1ccccc1)C(=O)N[C@@H](Cc1ccccc1)C(N)=O [ArSK/CCK2(ns)] (H-GGDDQYGFGLFF-NH2; N-terminus assumed)	did not trigger cardiac stomach retraction	no effect	modest contraction	did not elicit luminescence responses	did not cause contraction	five to six orders of magnitude less potent	48000 nM	–	–	–
CC(C)C[C@H](NC(=O)CNC(=O)[C@H](Cc1c[nH]cn1)NC(=O)CNC(=O)[C@H](Cc1ccc(OS(=O)(=O)O)cc1)NC(=O)[C@H](CC(=O)O)NC(=O)[C@H](CC(=O)O)NC(=O)[C@@H](NC(=O)[C@H](CCCCN)NC(=O)[C@H](CO)NC(=O)[C@@H]1CCC(=O)N1)C(C)C)C(=O)N[C@@H](Cc1ccccc1)C(=O)N[C@@H](Cc1c[nH]c2ccccc12)C(N)=O [ArSK/CCK1] ([pGlu]SKVDD[sY]GHGLFW-NH2)	triggered cardiac stomach retraction	> 50%	concentration-dependent contraction	did not elicit luminescence responses	concentration-dependent contraction	–	0.25 nM	not significantly different	significantly more effective than ArSK/CCK2	~ 220%
CC(C)C[C@H](NC(=O)CNC(=O)[C@H](Cc1ccccc1)NC(=O)CNC(=O)[C@H](Cc1ccc(OS(=O)(=O)O)cc1)NC(=O)[C@H](CCC(N)=O)NC(=O)[C@H](CC(=O)O)NC(=O)[C@H](CC(=O)O)NC(=O)CNC(=O)CN)C(=O)N[C@@H](Cc1ccccc1)C(=O)N[C@@H](Cc1ccccc1)C(N)=O [ArSK/CCK2] (H-GGDDQ[sY]GFGLFF-NH2; N-terminus assumed)	triggered cardiac stomach retraction	> 50%	concentration-dependent contraction	did not elicit luminescence responses	concentration-dependent contraction	–	0.12 nM	not significantly different	–	~ 110%

— PMC8428848, “Ancient role of sulfakinin/cholecystokinin-type signalling in inhibitory regulation of feeding processes revealed in an echinoderm” (eLife, 2021)
